Drawing on patent US10040791B2, “Isoxazole derivative as mutant isocitrate dehydrogenase 1 inhibitor” (Daiichi Sankyo Company, Limited, priority 2014, dated 2018), this text covers IC50 and response vs control in vivo for 10 compounds.

Assay [1] relates to HT-1080 cells expressing IDH1R132C. In words: 2-HG production inhibitory activity using HT1080 cell. Format: cell-based, human. The note with it: Homo sapiens, HT-1080; 2-HG production, HT1080 cells; read-out: Test Example 3 IC50. Here is the method:
Then, 100 μL of growth medium B was added to each well, further 25 μL of a solution of each compound diluted to a predetermined concentration with growth medium B was added to each well, and the cells were incubated at 37° C. for 2 days under 5% CO2. […] Then, 150 μL of ultrapure water was further added to each well, and the mixture was stirred by pipetting and stored at −20° C.
The preserved solutions were thawed at room temperature.

Assay [2] concerns the target IDH1R132C (Homo sapiens (Human), UniProt O75874, R132C). In words: Inhibitory activity against IDH1R132C enzyme (NADPH detection, WST-8). It counts as biochemical. The note with it: 10 nM, residual NADPH detected with WST-8, read-out: Test Example 1 IDH1 R132C IC50.
Assay [3] has as its system HT1080 xenografted mice (IDH1R132C). In words: 2-HG production inhibitory activity using HT1080 xenografted mice. It counts as in vivo, mouse. The note with it: Mus musculus, HT-1080, po, 6 h, 2-HG production, HT1080 xenografted mice; read-out: Test Example 5 Ratio (%). The gist of the method:
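Mice bearing HT1080 tumors received 75 mg/kg compound by oral gavage twice a day, three doses in total, at 10 mL/kg; vehicle-dosed mice were negative controls. Tumors were collected 6 h after the final dose, frozen, homogenized in methanol and centrifuged, and 2-HG was measured in the extracts.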

IDH1R132C, sequence (O75874 whole entry R132C): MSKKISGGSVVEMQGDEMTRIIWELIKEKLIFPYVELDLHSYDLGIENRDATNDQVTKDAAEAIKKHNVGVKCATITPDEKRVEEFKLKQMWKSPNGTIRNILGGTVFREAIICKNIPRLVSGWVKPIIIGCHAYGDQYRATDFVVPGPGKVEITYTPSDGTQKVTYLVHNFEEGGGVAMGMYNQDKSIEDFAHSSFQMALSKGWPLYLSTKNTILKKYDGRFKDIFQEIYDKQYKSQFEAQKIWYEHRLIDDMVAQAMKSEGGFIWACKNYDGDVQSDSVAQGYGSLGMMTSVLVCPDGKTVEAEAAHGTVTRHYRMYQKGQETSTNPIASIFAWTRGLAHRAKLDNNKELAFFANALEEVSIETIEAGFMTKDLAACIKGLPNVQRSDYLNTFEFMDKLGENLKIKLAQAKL

`C=CC(=O)N1CC2(CC2)N(c2onc(-c3c(Cl)cccc3Cl)c2C(=O)n2ccc3c(/C=C/C(=O)O)cccc32)C[C@H]1C` [Example 155, (2E)-3-[1-({5-[(6R)7-Acryloyl-6-methyl-4,7-diazaspiro[2.5]oct-4-yl]-3-(2,6-dichlorophenyl)-1,2-oxazol-4-yl}carbonyl)-1H-indol-4-yl]prop-2-enoic acid]: the concentration for half-maximal inhibition (IC50) (commonly the concentration at which inhibition is half-maximal) in assay [1] was 55 nM; in assay [2], 122 nM. Moreover, the response vs control in vivo at 75 mg/kg in assay [3] worked out at 41%.

As for `C=CC(=O)N1CC2(CC2)N(c2onc(-c3c(F)cccc3Cl)c2C(=O)n2ccc3c(/C=C/C(=O)O)cccc32)C[C@H]1C` [Example 156, (2E)-3-[1-({5-[(6R)7-Acryloyl-6-methyl-4,7-diazaspiro[2.5]oct-4-yl]-3-(2-chloro-6-fluorophenyl)-1,2-oxazol-4-yl}carbonyl)-1H-indol-4-yl]prop-2-enoic acid], the concentration for half-maximal inhibition (IC50) in assay [1] and in assay [2] was 167 nM throughout. Also, the response vs control in vivo at 75 mg/kg in assay [3] worked out at 60%.

Regarding `C=CC(=O)N1CCN(c2onc(-c3c(F)cccc3Cl)c2C(=O)n2ccc3c(/C=C/C(=O)O)cccc32)C(C)(C)C1` [Example 157, (2E)-3-(1-{[5-(4-Acryloyl-2,2-dimethylpiperazin-1-yl)-3-(2-chloro-6-fluorophenyl)-1,2-oxazol-4-yl]carbonyl}-1H-indol-4-yl)prop-2-enoic acid], the values for the IC50 in assay [1] and in assay [2] were 265 nM and 256 nM, respectively. Besides, the response vs control in vivo at 75 mg/kg in assay [3] worked out at 89%.

In the case of `C=CC(=O)N1CC2(CC2)N(c2onc(-c3c(Cl)cccc3OC)c2C(=O)n2ccc3c(/C=C/C(=O)O)cccc32)C[C@H]1C` [Example 158, (2E)-3-[1-({5-[(6R)7-Acryloyl-6-methyl-4,7-diazaspiro[2.5]oct-4-yl]-3-(2-chloro-6-methoxyphenyl)-1,2-oxazol-4-yl}carbonyl)-1H-indol-4-yl]prop-2-enoic acid], the values for the half-inhibitory concentration (IC50) in assay [1] and in assay [2] were 178 nM and 179 nM, respectively. In addition, the response vs control in vivo at 75 mg/kg in assay [3] stood at 62%.

Regarding `C=CC(=O)N1C[C@@H](C)N(c2onc(-c3c(Cl)cccc3Cl)c2C(=O)n2ccc3c(/C=C/C(=O)O)cccc32)C2(CC2)C1` [Example 159, (2E)-3-[1-({5-[(5R)7-Acryloyl-5-methyl-4,7-diazaspiro[2.5]oct-4-yl]-3-(2,6-dichlorophenyl)-1,2-oxazol-4-yl}carbonyl)-1H-indol-4-yl]prop-2-enoic acid], the 50% inhibitory concentration (IC50) in assay [1] amounted to 138 nM; in assay [2], 84 nM. In assay [3], the response vs control in vivo at 75 mg/kg is 30%.

With `C=CC(=O)N1CC2(CC2)N(c2onc(-c3c(F)cccc3Cl)c2C(=O)n2ccc3c(/C=C/C(=O)O)cccc32)C[C@H]1CC` [Example 160, (2E)-3-[1-({5-[(6R)7-Acryloyl-6-ethyl-4,7-diazaspiro[2.5]oct-4-yl]-3-(2-chloro-6-fluorophenyl)-1,2-oxazol-4-yl}carbonyl)-1H-indol-4-yl]prop-2-enoic acid], the IC50 was determined as 106 nM in assay [1] and 81 nM in assay [2]. For the same compound, the response vs control in vivo at 75 mg/kg in assay [3] is 47%.

Consider `C=CC(=O)N1CC2(CC2)N(c2onc(-c3c(Cl)cccc3OC)c2C(=O)n2ccc3c(/C=C/C(=O)O)cccc32)C[C@H]1CC` [Example 161, (2E)-3-[1-({5-{(6R)7-Acryloyl-6-ethyl-4,7-diazaspiro[2.5]oct-4-yl]-3-(2-chloro-6-methoxyphenyl)-1,2-oxazol-4-yl}carbonyl)-1H-indol-4-yl]prop-2-enoic acid], for which the half-maximal inhibitory concentration (IC50) in assay [1] stood at 121 nM; in assay [2], 98 nM. Also, the response vs control in vivo at 75 mg/kg in assay [3] stood at 72%.

For the compound `C=CC(=O)N1CC2(CC2)N(c2onc(-c3c(Cl)cccc3Cl)c2C(=O)n2ccc3c(/C=C/C(=O)O)cccc32)C[C@H]1CC` [Example 163, (2E)-3-[1-({5-[(6R)7-Acryloyl-6-ethyl-4,7-diazaspiro[2.5]oct-4-yl]-3-(2,6-dichlorophenyl)-1,2-oxazol-4-yl}carbonyl)-1H-indol-4-yl]prop-2-enoic acid], the IC50 stood at 45 nM in assay [1] and 98 nM in assay [2]. For the same compound, the response vs control in vivo at 75 mg/kg in assay [3] stood at 33%.

As to `C=CC(=O)N1CCC(c2onc(-c3c(Cl)cc(Cl)cc3Cl)c2C(=O)c2cn(C)c3c(/C=C/C(=O)O)cccc23)CC1` [Example 166, (2E)-3-(3-{[5-(1-Acryloylpiperidin-4-yl)-3-(2,4,6-trichlorophenyl)-1,2-oxazol-4-yl]carbonyl}-1-methyl-1H-indol-7-yl)prop-2-enoic acid], the IC50 in assay [1] was found to be 299 nM; in assay [2] it was 141 nM. In addition, the response vs control in vivo at 75 mg/kg in assay [3] was 81%.

For `Cn1cc(C(=O)c2c(-c3c(Cl)cc(Cl)cc3Cl)noc2C(C)(C)C)c2ccc3ccc(C(=O)O)cc3c21` [Example 167, 3-{[5-tert-Butyl-3-(2,4,6-trichlorophenyl)-1,2-oxazol-4-yl]carbonyl}-1-methyl-1H-benzo[g]indole-8-carboxylic acid], the IC50 came out at 195 nM in assay [1] and 196 nM in assay [2]. In assay [3], the response vs control in vivo at 75 mg/kg is 87%.
